These results are taken from patent US20230277669A1, “USES OF UROLITHINS” (Amazentis SA, priority 2022, published 2023).

Assay [1] concerns APTK tumors. Put plainly: Oral UA in Pink1-/- mice with s.c. APTK tumors. The assay is classed as in vivo. Here is the method: (FIG. 4A) Scheme of CD3+ T-cell activation and analysis for various timepoints in order to investigate mitophagy induction in vitro. (FIG. 4B) Analysis of mitochondrial membrane potential within CD8+ T cells, with TMRM^lo representing cells with low mitochondrial membrane potential. Analysis was performed six hours after stimulation with aCD/aCD28 stimulation beads at the presence of the indicated treatments. N=4 per group, *p < 0.05 by Mann Whitney U test. One of two independent experiments are shown. (FIG. 4C) Representative flow histogram and quantification of lysosome formation in CD8+ cells six hours after in vitro stimulation. MFI shown relative to DMSO controls, n=4. Data are normalised mean ± SD, statistical analysis by two-sided t-test. One out of two independent experiments are shown. (FIG. 4D) Mitotracker Red staining of in vitro stimulated CD8+ cells after 24 hours of Urolithin A (UA25 n=6; UA50 n=6) or vehicle control treatment (DMSO: n=4). A representative flow histogram depicting identification of Mitotracker^hi cells is shown. Data are mean ± SD, statistical analysis was performed by two-sided t-test (*p < 0.05; ***p <0.001; ****p < 0.0001). Experiment was repeated twice. (FIG. 4E) Subset-specific identification of Mitotracker red accumulation after 24 hours of in vitro stimulation either with vehicle control (DMSO) or 50 µM Urolithin A (n=5). Subsets were identified was depicted in the FIGS. 7-9. Data are mean ± SD, statistical analysis by two-sided t-test (* p<0.05, *** p<0.001 and **** p<0.0001). (FIG. 4F) qPCR analysis of various autophagy/mitophagy associated genes of in vitro activated CD3+ cells, 24 h after activation (n=3). Data are ± SEM, statistical analysis was performed by two-sided t-test (*p < 0.05,**p < 0.01). Overall p value is given for the comparison over the entire panel of genes after two-way ANOVA test. (FIG. 4G) Western blot of Parkin protein expression in UA or DMSO (n=3) treated cells after 24 h. Cells were stimulated at the presence of plate-bound aCD3/aCD28 antibodies. […] (FIG. 4H) CD8+ cells from Pink1^-/- mice display deficient mitophagy upon UA treatment in vitro: Lysosome formation in CD8+ of Pink1^-/- mice as assessed by Lysotracker staining 6h post stimulation at the presence of UA or DMSO (n=4). Data are mean ± SD, one out of two independent experiments are shown. (FIG. 4I) CD8+ cells from Pink1^-/- mice display deficient mitophagy upon UA treatment in vitro: Mitotracker red staining of Pink1^-/- CD8+ stimulated in vitro for 48 h, either in the presence of UA or DMSO (n=4). Percentage of Mitotracker^hi CD8+ cells are shown. Data are mean ± SD and acquired via flow cytometry. […] Quantification of TCF1^hi cells among CD8. (FIG. 4N) Quantification of PD1^hi cells among CD8. (FIG. 4O) Quantification of and Tim3^hi cells among CD8. […]

Assay [2] relates to CD19-CAR T cells. Put plainly: CD19-CAR T cell generation in presence of UA. The assay is classed as cell-based, human.

On to `O=c1oc2cc(O)ccc2c2ccc(O)cc12` [Urolithin A], for which the “ex vivo cytokine release of CD8+ TIL” value in assay [1] (PMA and Ionomycin restimulation) was “did not exhibit differences”. In assay [1] (UA or control diet), the “TCF-1 expression in CD8+ TIL” value is recorded as “did not exhibit differences” and the “exhaustion markers in CD8+ TIL” value was “did not exhibit differences”. For the same molecule, the “tumor suppressive effect of UA (growth curve)” value in assay [1] (UA-rich or control diet) is “abrogated the tumor suppressive effect of UA”. Moreover, the “gene delivery into CD8+ cells” value in assay [2] is “did not impair gene delivery”. Moreover, in assay [2] (UA supplementation), the markers of exhaustion entry is given as “not affected”. The “CAR expressing TSCM cells among CD8+ cells” value in assay [2] (three days post transduction, upon UA exposure) is “about 60%”.
